Reference: the supplement of paper PMC11616607

Experiments:
Test in all cases: drug sensitivity score (DSS) from 5-point dose-response viability curve (DSS (area-under-curve based score)); higher = more sensitive (stronger growth inhibition or killing); extreme values may be limits of the assay
Conditions in all cases: exposure time: 72 h; concentration range: 5 concentrations over 10,000-fold range
CAOV3 = system: CAOV3
Procedure, shortened: (§1)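 Drug sensitivity scores were calculated in Breeze software for each cell line and drug pair; higher scores indicate more sensitivity. A score of zero indicates no response. The underlying assay used 384-well plates: drugs were placed by an Echo 550 acoustic dispenser at five concentrations spanning a 10,000-fold range, 1,500 ovarian cancer or normal ovarian cells were added per well, and cells were kept 3 days at 37°C, 5% CO2. Viability was then measured with CellTiter-Glo luminescence on a PHERAstar FS.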

COV318 = system: COV318
Procedure, shortened: as §1

COV362 = system: COV362
Procedure, shortened: as §1

HOSE1C = system: HOSE1C
Procedure, shortened: as §1

HOSE2C = system: HOSE2C
Procedure, shortened: as §1

JHOS2 = system: JHOS2
Procedure, shortened: as §1

Kuramochi = system: Kuramochi
Procedure, shortened: as §1

OV90 = system: OV90
Procedure, shortened: as §1

OVCAR4 = system: OVCAR4
Procedure, shortened: as §1

OVCAR5 = system: OVCAR5
Procedure, shortened: as §1

OVCAR8 = system: OVCAR8
Procedure, shortened: as §1

Ovsaho = system: Ovsaho
Procedure, shortened: as §1

Compound | drug sensitivity score (CAOV3) | drug sensitivity score (COV318) | drug sensitivity score (COV362) | drug sensitivity score (HOSE1C) | drug sensitivity score (HOSE2C) | drug sensitivity score (JHOS2) | drug sensitivity score (Kuramochi) | drug sensitivity score (OV90) | drug sensitivity score (OVCAR4) | drug sensitivity score (OVCAR5) | drug sensitivity score (OVCAR8) | drug sensitivity score (Ovsaho)
CCS(=O)(=O)Nc1ccc(Oc2ccc(F)cc2F)c(-c2cn(C)c(=O)c3[nH]ccc23)c1 [Mivebresib] | 25.3 | 6.4 | 9.4 | 30.7 | 25.6 | 18.4 | 22.6 | 22.1 | 18.3 | 20.2 | 24.7 | 22.8
C[C@H]1C[C@@H](n2c(Nc3ccc(OC(F)(F)F)cc3)nc3cc(CCC(=O)O)ccc32)CC(C)(C)C1 | 0 | 0 | 0 | 0 | 0 | 0 | 0 | 0 | 0 | 0 | 0.1 | 0
Cn1cc(-c2ccc(F)c(C(F)(F)F)c2)nc1C1CCN(c2ncnc3[nH]ncc23)CC1 | 0 | 0 | 0 | 1.9 | 3.2 | 0 | 0 | 0 | 0 | 0 | 0.1 | 0
CN1CCN(c2ccc3nc(-c4c(N)c5c(F)cccc5[nH]c4=O)[nH]c3c2)CC1 [Dovitinib] | 0 | 0 | 0 | 0 | 0 | 0 | 0 | 0 | 0.6 | 0 | 0 | 0
Cn1cnc2c(F)c(Nc3ccc(Br)cc3F)c(C(=O)NOCCO)cc21 [Binimetinib] | 7.6 | 0 | 1.3 | 0 | 0 | 1.5 | 3.5 | 13.4 | 1.7 | 7.1 | 0 | 6.2
CC(C)C[C@@H](C(=O)N[C@H](C(=O)OC1CCCC1)c1ccccc1)[C@H](O)C(=O)NO [Tosedostat] | 7.4 | 0.4 | 0 | 0 | 2.1 | 15.7 | 0.6 | 12.3 | 7.4 | 8.3 | 6.9 | 5.1
O=c1sn(-c2cccc3ccccc23)c(=O)n1Cc1ccccc1 [Tideglusib] | 0 | 0 | 0 | 0 | 0 | 0 | 0 | 0 | 0 | 0 | 0 | 0.1
C=CC(=O)Nc1cc(Nc2nccc(-c3cn(C)c4ccccc34)n2)c(OC)cc1N(C)CCN(C)C [Osimertinib] | 5.4 | 1.3 | 2.2 | 4.7 | 0.9 | 1.6 | 3.9 | 1.4 | 1.7 | 5.3 | 3.7 | 5.5
COc1cc2c(cc1-c1c(C)noc1C)ncc1[nH]c(=O)n([C@H](C)c3ccccn3)c12 [I-BET151] | 11.9 | 1.9 | 0.6 | 13.8 | 11.3 | 4.5 | 9.2 | 8.2 | 6.9 | 7.1 | 9.5 | 12
Cc1cccc(CC(=O)N2CCc3c2ccc(-c2cn(C)c4ncnc(N)c24)c3F)n1 | 0.4 | 0 | 0 | 0 | 0 | 0 | 0.2 | 0 | 1.1 | 0 | 1.5 | 0
O=C(Nc1cc(Cl)cc2c1[nH]c1cnccc12)c1cccnc1 [PS-1145] | 0 | 0 | 0 | 0 | 0 | 0 | 0.6 | 1 | 0.3 | 1.6 | 0 | 0
COc1ccccc1S(=O)(=O)Nc1ccc2c(c1)CN(C)C(=O)N2 [PFI-1] | 7.2 | 3.1 | 3 | 3.1 | 4.3 | 2.6 | 8.7 | 5.5 | 4.4 | 5.7 | 4.8 | 8.2
CCn1c(-c2nonc2N)nc2c(C#CC(C)(C)O)ncc(OC[C@H]3CCCNC3)c21 | 4.3 | 0 | 1.3 | 1.4 | 3.7 | 0 | 2.9 | 0.6 | 0 | 0 | 0 | 0.5
CNC(=O)c1ccccc1Nc1nc(Nc2ccc3c(c2OC)CCC[C@H](N2CCN(CCO)CC2)C3)ncc1Cl | 8.2 | 5.2 | 5.4 | 4.8 | 8.4 | 7.6 | 6.4 | 8.8 | 5.2 | 9.1 | 4.9 | 8.5
CS(=O)(=O)c1ccc(-c2cnc(N)c(C(=O)Nc3ccccc3)n2)cc1 [VE-821] | 0 | 0 | 0 | 4 | 1.7 | 0 | 0 | 0 | 0 | 0 | 0 | 1.2
Cc1cn(-c2cc(NC(=O)c3ccc(C)c(Nc4nccc(-c5cccnc5)n4)c3)cc(C(F)(F)F)c2)cn1 [Nilotinib] | 0 | 0.1 | 1.2 | 0 | 0 | 0 | 0 | 0 | 0.9 | 2 | 3.4 | 0

Compound | drug sensitivity score (CAOV3) | drug sensitivity score (COV318) | drug sensitivity score (COV362) | drug sensitivity score (HOSE1C) | drug sensitivity score (HOSE2C) | drug sensitivity score (JHOS2) | drug sensitivity score (Kuramochi) | drug sensitivity score (OV90) | drug sensitivity score (OVCAR4) | drug sensitivity score (OVCAR5) | drug sensitivity score (OVCAR8) | drug sensitivity score (Ovsaho)
COc1cc(Br)c(Nc2nc(-c3c(C)nc4ncccn34)cs2)c(Br)c1 [PTC-209] | 4.1 | 2.1 | 0.6 | 8.1 | 9.6 | 6.2 | 2.7 | 9.8 | 3.1 | 3.5 | 4.5 | 1.3
Nc1ncnc2c1nc(Cl)n2[C@@H]1O[C@H](CO)[C@@H](O)[C@H]1O [8-chloro-adenosine] | 11.2 | 3.7 | 7.6 | 0.5 | 3.5 | 9.4 | 5.1 | 3.7 | 8 | 11.9 | 13.2 | 18.5
CCc1cncnc1N1CCN(Cc2nc3ccc(C(F)(F)F)cc3[nH]2)CC1 | 0.9 | 1.1 | 0 | 0 | 0 | 0.8 | 1.1 | 2.9 | 2.3 | 2.8 | 3.1 | 1.2
CCN1CCN(c2ccc(Nc3cc(N(C)C(=O)Nc4c(Cl)c(OC)cc(OC)c4Cl)ncn3)cc2)CC1 [Infigratinib] | 0 | 0 | 0 | 0 | 0 | 0 | 0 | 0 | 0 | 0 | 0 | 0
Cc1nc(C(=O)NCC(=O)O)c(O)c2ccc(Oc3ccccc3)cc12 [Roxadustat] | 1.3 | 0 | 0 | 0 | 0 | 0.1 | 0.4 | 0 | 0.3 | 0 | 0 | 0
CC1CCC(n2c3cnccc3c3cnc(Nc4ccc5c(n4)CCN(C(=O)CO)C5)nc32)CC1 (centres undefined) [AMG-925] | 0 | 0 | 0 | 0 | 0 | 0.5 | 0.1 | 0 | 0 | 2.5 | 0 | 0.1
Nc1cc(C(F)(F)F)c(-c2cc(N3CCOCC3)nc(N3CCOCC3)n2)cn1 [Buparlisib] | 8.7 | 4.6 | 3.8 | 8.6 | 8.8 | 4.6 | 6.1 | 5.1 | 5.3 | 8.8 | 7.7 | 6.5
CCn1c(C(=O)N(C2CC2)C2CC2)cc2c3c(ncn3C)c(Nc3cc(C)n(C)n3)nc21 | 0 | 0.4 | 0.2 | 0 | 0 | 0 | 2.6 | 0.5 | 0.3 | 0 | 0 | 0
CC(C)(O)CC(=O)NCCn1ccc2ncnc(Nc3ccc(Oc4cccc(C(F)(F)F)c4)c(Cl)c3)c21 [TAK-285] | 2.5 | 0 | 0.2 | 0 | 0 | 0 | 0.9 | 0 | 0 | 2 | 0.1 | 0.2
Cc1cc(C)c(CNC(=O)c2cc(-c3ccc(CN4CCOCC4)cc3)cc3c2cnn3C2CCCC2)c(=O)[nH]1 [EPZ-5687] | 0 | 0 | 1.1 | 0 | 0 | 0 | 0 | 0 | 0 | 1.8 | 0 | 0
COc1cc2nccc(Oc3ccc(NC(=O)Nc4cc(C)on4)c(Cl)c3)c2cc1OC [Tivozanib] | 1.8 | 0.6 | 0 | 2.4 | 6.8 | 0.2 | 1.7 | 5.6 | 2.3 | 4 | 2.6 | 0.1
Clc1ccc(Nc2nnc(Cc3ccncc3)c3ccccc23)cc1 [Vatalanib] | 0 | 0 | 0 | 0 | 0 | 0 | 0 | 0 | 0 | 0 | 0 | 0.7
C[C@@H]1CN(CC(=O)Nc2ccc3c(c2)Cc2cccc(-c4cc(=O)cc(N5CCOCC5)o4)c2S3)C[C@H](C)O1 | 1.1 | 0 | 1.2 | 0 | 0 | 0 | 0.5 | 2.7 | 0.7 | 1.6 | 1.9 | 3.4
CC(C)(C)c1cc(NC(=O)Nc2ccc(Oc3ccnc4[nH]c(=O)cnc34)cc2F)n(-c2ccccc2)n1 | 2.8 | 0 | 0 | 16.2 | 12.8 | 0.5 | 2.3 | 12.4 | 2.8 | 1.8 | 2 | 1.6
O=C(/C=C/c1cccc(S(=O)(=O)Nc2ccccc2)c1)NO [Belinostat] | 13.6 | 9.1 | 7.3 | 23.4 | 18.1 | 10 | 10.2 | 13.5 | 8.6 | 17.2 | 18.2 | 11.7
NC(=S)N/N=C/c1ncccc1N [Triapine] | 4.1 | 0.6 | 0.5 | 9.7 | 7.7 | 3.1 | 0.5 | 1.1 | 0 | 2.6 | 4.9 | 2.4
